Data published in patent US20220211796A1, “PEPTIDE ANTIBIOTICS AND METHODS OF USE THEREOF” (priority 2019, published 2022).
In brackets after ≈: the same amount, converted by molar mass. Bridge positions count the residues as written; N and C are the ends. Square brackets hold non-standard residues; d marks the D form. Ends that are not written are not given here. Peptide text beside a SMILES is read from it.

Experiments:
S. aureus = assay: Time-kill kinetic assay; type: cell-based; details: 10×MIC, 5×MICs
Method: The bacteria-killing kinetics of peptides with S. aureus was measured at 5×MICs, and vancomycin was used as a positive control. An overnight culture of bacterial cells was re-suspended in fresh MH broth at density of 10^7 cells/ml, and cultured with peptides at 37° C. Viable colony forming units (CFUs) were counted by performing tenfold serial dilutions of the aliquot sample at intervals of 0, 1, 2, 4, 8, 12, and 24 hours after inoculation, and plated on MHB agar plates. Time-kill curves were plotted as Log10 (cfu ml^−1) versus time functions.

[1] = system: cell wall biosynthesis in S. aureus; assay: Accumulation of UDP-N-acetylmuramyl-pentapeptide precursor; type: cell-based; details: 10-fold MIC, 1 h
Source text: We next examined the effect of P14 and P15 on cell wall biosynthesis in live bacteria. Blockade of this biosynthetic pathway causes accumulation of the water soluble intracellular intermediate lipid II precursor UDP-MurNAc-L-Ala-D-γ-Glu-L-Lys-D-Ala-D-Ala.^40 This intermediate is detectable after extraction from the cytosol in response to antibiotic administration by chromatographic methods.
Accumulation of UDP-N-acetylmuramyl-pentapeptide precursor from S. aureus Accumulation of peptidoglycan precursor of S. aureus […] was analyzed in the presence of peptide antibiotics. Bacteria were grown at 37° C. till OD600 of 0.5 was attained. Ten times MICs of peptide antibiotics were added per ml of grown bacterial culture and allowed to stand for 1 h. After cooling the cells on ice, they were harvested by centrifugation at 4° C. for 15 min. Bacterial cells were suspended in distilled water, and then slowly stirred into boiling water for 15 min. The suspension was allowed to cool first at room temperature, then on ice. After centrifugation at 4° C. for 1 h, the supernatant was lyophilized. The lyophilized sample was dissolved in water, and pH was adjusted to 2 by addition of 20% H3PO4. The white precipitate was removed by centrifugation, and the supernatant was immediately subjected to RP-HPLC analysis and MWs were assessed by MALDI-TOF mass spectroscopy.

[2] = system: human red blood cells (hRBC); assay: Hemolytic activity; type: cell-based; details: for lysis / toxicity on red blood cells: concentrations up to 256 μg/ml
Method: Fresh red human blood cells (hRBC) were washed and centrifuged at 3000 rpm for 5 min at 4° C. with PBS until a clear solution was obtained. Two-fold serial dilutions of each peptide in PBS from 0.5 μg/ml to 256 μg/ml were incubated with 0.25% (v/v) hRBC suspension at 37° C. for 1 h, and then centrifuged for 5 min at 3500 rpm in 96-well plate. 50 μl of the supernatant from each well was diluted with 50 μl pure water, and the OD at 415 nm was measured using microplate reader. Melittin at the same concentrations (200 μg/ml for complete lysis) was used as a positive control. Percent hemolysis was calculated according to the equation: […]
where complete hemolysis was defined as the average hemolysis of all wells containing a final concentration of melittin ranging from 50 to 400 μg/ml. Experiments were performed as triplicates at different days.

[3] = system: several Gram-positive strains (with one Gram-negative strain as control); assay: MIC / antibiotic susceptibility, strains not singled out; type: cell-based; details: vancomycin-sensitive bacteria
Method: (§1) The L-peptides identified from five different phage display libraries were catalogued as described previously and selected sequences were synthesized in D-enantiomeric form by SPPS for further investigation in several biological assays.
(§2) MICs were determined according to a 96-well microdilution protocol outlined by the Clinical and Laboratory Standard Institute (CLSI) guideline with modifications for peptide antibiotics reported by Wiegand et al.^35 Two-fold serial peptide dilutions were performed to go from 2560 μg/ml to 5 μg/ml in0.2% BSA and 0.01% acetic acid buffer in 96-well polypropylene plates (COSTAR, #3879). Dilution of bacterial suspensions (1:200) of different bacterial strains that were grown until 0.5 McFarland standard were prepared to obtain a final inoculum concentration of 8×10^5 CFU/ml in Mueller-Hinton broth.

[4] = system: high level vancomycin resistant E. faecium (vanA) ATCC 51559; assay: microbe, parasite or virus in culture
Method: as §1, §2

[5] = system: Methicillin-resistant S. aureus (MRSA) ATCC 43300; assay: microbe, parasite or virus in culture
Method: as §1, §2

S. aureus ATCC 6538 = assay: microbe, parasite or virus in culture
Method: as §1, §2

E. coli ATCC 25992 = assay: microbe, parasite or virus in culture
Method: as §1, §2

B. subtilis ATCC 6633 = assay: microbe, parasite or virus in culture
Method: as §1, §2

[6] = system: low level vancomycin resistant E. faecium (vanB) ATCC 51299; assay: microbe, parasite or virus in culture
Method: as §1, §2

E. faecalis ATCC 29121 = assay: microbe, parasite or virus in culture
Method: as §1, §2

HeLa cells = assay: Mammalian cytotoxicity (MTT) assay; details: 24 h, b121: concentrations up to 256 μg/ml
Method: Cervical cancer cells (HeLa) were cultured in Dulbecco's Modified Eagle's medium (DMEM) (Invitrogen #11995-073) supplemented with 10% bovine calf serum at 37° C., 5% CO2, and seeded (5×10^3 cells/well) in 96-well plate flat-bottomed plate for 24 h before the assay. […] After washing the cells with PBS, the cells were subjected to the standard yellow tetrazolium (3-(4,5-dimethylthiazol-2-yl)-2,5-diphenyltetrazolium bromide (MTT) assay protocol at final concentration of 0.5 mg/ml for 4 h in a humidified 5% CO2 atmosphere at 37° C. MTT solution was then aspirated, and the purple formazan crystals were resuspended in DMSO by incubation for 5 min at 37° C. The absorbance at 540 nm was then read using a microplate reader. Viability control (100% viability) was assigned to samples with only HeLa cells and DMEM media, 0% viability was assigned to samples with 1% added Triton-X-100 and no peptide. Experiments were performed as triplicates at different days.

[7] = relative to D-Ala-D-Ala precursor; cited from earlier work
[8] = read-out: Kd of vancomycin:D-Ala-D-Ala complex; cited from earlier work
[9] = Table 5, high level vancomycin resistant E. faecium ATCC 51559
[10] = Table 5, low level vancomycin resistant E. faecium ATCC 51299
[11] = Table 5, E. faecalis ATCC 29121
[12] = Table 6, high level vancomycin resistant E. faecium ATCC51559
[13] = Table 6, low level vancomycin resistant E. faecium ATCC51299

CSLITQCGGVGC ([dC][dS][dL][dI][dT][dQ][dC]GG[dV]G[dC]; not fully specified (bridges); also: bicyclic, ring places and kind not given here) [P15]
killing kinetics / bactericidal activity (S. aureus): bactericidal activity similar to vancomycin | accumulation of UDP-MurNAc-pentapeptide [1]: accumulation of UDP-MurNAc-pentapeptide at levels similar to vancomycin | lysis / toxicity on red blood cells [2]: neither caused lysis of erythrocytes | activity against vancomycin-sensitive bacterial strains [3]: similarly high activity as P14 | MIC VRE (vanA) [4, 9]: >256 µg/mL | MIC MRSA ([5]; Table 5, MRSA ATCC 43300): 32 µg/mL | MIC S. aureus (S. aureus ATCC 6538; Table 5, S. aureus ATCC 6538): 8 µg/mL | MIC E. coli (E. coli ATCC 25992; Table 5, E. coli ATCC 25992): >256 µg/mL | MIC B. subtilis (B. subtilis ATCC 6633; Table 5, B. subtilis ATCC 6633): 8 µg/mL | MIC VRE (vanB) [6, 10]: 128 µg/mL | MIC E. faecalis (E. faecalis ATCC 29121; [11]): 16 µg/mL

CC[C@H](C)[C@H](NC(=O)CN)C(=O)NCC(=O)N[C@@H](C)C(=O)N[C@H](C(=O)N[C@@H](CC(C)C)C(=O)N[C@@H](CCCCN)C(=O)N[C@H](C(=O)N[C@@H](CC(C)C)C(=O)N[C@H](C(=O)N[C@H](C(=O)NCC(=O)N[C@@H](CC(C)C)C(=O)N1CCC[C@H]1C(=O)N[C@@H](C)C(=O)N[C@@H](CC(C)C)C(=O)N[C@H](C(=O)N[C@@H](CO)C(=O)N[C@@H](Cc1c[nH]c2ccccc12)C(=O)N[C@H](C(=O)N[C@@H](CCCCN)C(=O)N[C@@H](CCCNC(=N)N)C(=O)N[C@@H](CCCCN)C(=O)N[C@@H](CCCNC(=N)N)C(=O)N[C@@H](CCC(N)=O)C(=O)N[C@@H](CCC(N)=O)C(N)=O)[C@@H](C)CC)[C@@H](C)CC)[C@@H](C)O)[C@@H](C)O)C(C)C)C(C)C [P2, Melittin]
cytotoxicity on HeLa cells (HeLa cells): toxic

CSCC[C@H]1NC(=O)[C@H]2CCCN2C(=O)[C@@H]([C@H](C)O)NC(=O)[C@@H](C)NC(=O)CNC(=O)[C@@H](CCCNC(=N)N)NC(=O)[C@H](N)CSSC[C@H](C(N)=O)NC(=O)[C@@H](CO)NC1=O [P10, CRGATPMSC] (H-[dC][dR]G[dA][dT][dP][dM][dS][dC]-NH2; disulfide 1-9)
MIC VRE (vanA) [4, 9]: >256 µg/mL | MIC MRSA ([5]; Table 5, MRSA ATCC 43300): 128 µg/mL (≈ 139 µM) | MIC S. aureus (S. aureus ATCC 6538; Table 5, S. aureus ATCC 6538): 128 µg/mL (≈ 139 µM) | MIC E. coli (E. coli ATCC 25992; Table 5, E. coli ATCC 25992): >256 µg/mL | MIC B. subtilis (B. subtilis ATCC 6633; Table 5, B. subtilis ATCC 6633): 128 µg/mL (≈ 139 µM) | MIC VRE (vanB) [6, 10]: >256 µg/mL | MIC E. faecalis (E. faecalis ATCC 29121; [11]): 256 µg/mL (≈ 278 µM)

CGGGICRTHNC [P18]
lysis / toxicity on red blood cells [2]: neither caused lysis of erythrocytes | activity against vancomycin-sensitive bacterial strains [3]: excellent activity | MIC VRE (vanA) [4, 12]: >256 µg/mL | MIC MRSA ([5]; Table 6, MRSA ATCC43300): 32 µg/mL | MIC S. aureus (S. aureus ATCC 6538; Table 6, S. aureus ATCC6538): 16 µg/mL | MIC E. coli (E. coli ATCC 25992; Table 6, E. Coli ATCC25992): >256 µg/mL | MIC B. subtilis (B. subtilis ATCC 6633; Table 6, B. subtilis ATCC6633): 16 µg/mL | activity against vanB / low-level vancomycin-resistant strain [6]: moderate activity | MIC VRE (vanB) [6, 13]: 128 µg/mL | MIC E. faecalis (E. faecalis ATCC 29121; Table 6, E. faecalis ATCC29121): 128 µg/mL

CQTDVCQRTIC ([dC][dQ][dT][dD][dV][dC][dQ][dR][dT][dI][dC]; not fully specified (bridges); also: bicyclic, ring places and kind not given here) [P14]
killing kinetics / bactericidal activity (S. aureus): bactericidal activity similar to vancomycin | accumulation of UDP-MurNAc-pentapeptide [1]: accumulation of UDP-MurNAc-pentapeptide at levels similar to vancomycin | lysis / toxicity on red blood cells [2]: neither caused lysis of erythrocytes | activity against vancomycin-sensitive bacterial strains [3]: high antibacterial activity | activity against vanA / high-level vancomycin-resistant strain [4]: high antibacterial activity | MIC VRE (vanA) [4, 9]: 128 µg/mL | MIC against MRSA [5]: 32 µg/mL | MIC against S. aureus (S. aureus ATCC 6538): 8 µg/mL | MIC E. coli (E. coli ATCC 25992; Table 5, E. coli ATCC 25992): >256 µg/mL | MIC B. subtilis (B. subtilis ATCC 6633; Table 5, B. subtilis ATCC 6633): 8 µg/mL | MIC against vanB vancomycin-resistant Enterococci [6]: 32 µg/mL | activity against vanB / low-level vancomycin-resistant strain [6]: high antibacterial activity | MIC E. faecalis (E. faecalis ATCC 29121; [11]): 32 µg/mL

CN[C@H](CC(C)C)C(=O)N[C@H]1C(=O)N[C@@H](CC(N)=O)C(=O)N[C@H]2C(=O)N[C@H]3C(=O)N[C@H](C(=O)N[C@H](C(=O)O)c4cc(O)cc(O)c4-c4cc3ccc4O)[C@H](O)c3ccc(c(Cl)c3)Oc3cc2cc(c3O[C@@H]2O[C@H](CO)[C@@H](O)[C@H](O)[C@H]2O[C@H]2C[C@](C)(N)[C@H](O)[C@H](C)O2)Oc2ccc(cc2Cl)[C@H]1O [P1, Vancomycin, reference compound]
reduction of binding affinity on D-alanine to D-lactate substitution [7]: ~1000 fold | cytotoxicity on HeLa cells (HeLa cells): non-toxic | percentage hemolysis of hRBCs ([2]; 0.25% hRBC, 37° C., 1 h): 0% | Kd [8]: ~1000 nM | activity against vanA / high-level vancomycin-resistant strain [4]: no activity | MIC ([4]; Enterococcus faecium, ATCC51559 / VRE, read-out: MIC VRE (vanA)): > 256 µg/mL | MIC VRE (vanA) [4, 12]: >256 µg/mL | MIC ([5]; Staphylococcus aureus, read-out: MIC MRSA): 0.5 µg/mL (≈ 0.345 µM) | MIC MRSA ([5]; Table 6, MRSA ATCC43300): 0.5 µg/mL (≈ 0.345 µM) | MIC (S. aureus ATCC 6538; Staphylococcus aureus, ATCC6538, read-out: MIC S. aureus): 0.5 µg/mL (≈ 0.345 µM) | MIC S. aureus (S. aureus ATCC 6538; Table 6, S. aureus ATCC6538): 0.5 µg/mL (≈ 0.345 µM) | MIC (E. coli ATCC 25992; Escherichia coli, ATCC25992, read-out: MIC E. coli): > 256 µg/mL | MIC E. coli (E. coli ATCC 25992; Table 6, E. Coli ATCC25992): >256 µg/mL | MIC (B. subtilis ATCC 6633; Bacillus subtilis, ATCC6633, read-out: MIC B. subtilis): 0.5 µg/mL (≈ 0.345 µM) | MIC B. subtilis (B. subtilis ATCC 6633; Table 6, B. subtilis ATCC6633): 0.5 µg/mL (≈ 0.345 µM) | MIC ([6]; Enterococcus faecium, ATCC51299 / VRE, read-out: MIC VRE (vanB)): 32 µg/mL (≈ 22.1 µM) | MIC VRE (vanB) [6, 13]: 32 µg/mL (≈ 22.1 µM) | MIC (E. faecalis ATCC 29121; Enterococcus faecalis, ATCC29121, read-out: MIC E. faecalis): 1 µg/mL (≈ 0.69 µM) | MIC E. faecalis (E. faecalis ATCC 29121; Table 6, E. faecalis ATCC29121): 1 µg/mL (≈ 0.69 µM)
